Assay results reported in patent US8741934B2, “Inhibitors of ion channels” (Pfizer Limited, priority 2007, dated 2014).

The compounds below were run against T1, hSCN3A sodium channels (Homo sapiens, UniProt Q9NY46) (assay: hSCN3A electrophysiology, whole-cell patch-clamp or PatchXpress 7000, estimated IC-50 (Table B)). Settings: estimated IC-50; hSCN3A cells, whole-cell patch-clamp or PatchXpress 7000; read-out: SCN3A EIC-50.
T1 construct: expressed in transfected cells
T1 sequence (Q9NY46 whole entry): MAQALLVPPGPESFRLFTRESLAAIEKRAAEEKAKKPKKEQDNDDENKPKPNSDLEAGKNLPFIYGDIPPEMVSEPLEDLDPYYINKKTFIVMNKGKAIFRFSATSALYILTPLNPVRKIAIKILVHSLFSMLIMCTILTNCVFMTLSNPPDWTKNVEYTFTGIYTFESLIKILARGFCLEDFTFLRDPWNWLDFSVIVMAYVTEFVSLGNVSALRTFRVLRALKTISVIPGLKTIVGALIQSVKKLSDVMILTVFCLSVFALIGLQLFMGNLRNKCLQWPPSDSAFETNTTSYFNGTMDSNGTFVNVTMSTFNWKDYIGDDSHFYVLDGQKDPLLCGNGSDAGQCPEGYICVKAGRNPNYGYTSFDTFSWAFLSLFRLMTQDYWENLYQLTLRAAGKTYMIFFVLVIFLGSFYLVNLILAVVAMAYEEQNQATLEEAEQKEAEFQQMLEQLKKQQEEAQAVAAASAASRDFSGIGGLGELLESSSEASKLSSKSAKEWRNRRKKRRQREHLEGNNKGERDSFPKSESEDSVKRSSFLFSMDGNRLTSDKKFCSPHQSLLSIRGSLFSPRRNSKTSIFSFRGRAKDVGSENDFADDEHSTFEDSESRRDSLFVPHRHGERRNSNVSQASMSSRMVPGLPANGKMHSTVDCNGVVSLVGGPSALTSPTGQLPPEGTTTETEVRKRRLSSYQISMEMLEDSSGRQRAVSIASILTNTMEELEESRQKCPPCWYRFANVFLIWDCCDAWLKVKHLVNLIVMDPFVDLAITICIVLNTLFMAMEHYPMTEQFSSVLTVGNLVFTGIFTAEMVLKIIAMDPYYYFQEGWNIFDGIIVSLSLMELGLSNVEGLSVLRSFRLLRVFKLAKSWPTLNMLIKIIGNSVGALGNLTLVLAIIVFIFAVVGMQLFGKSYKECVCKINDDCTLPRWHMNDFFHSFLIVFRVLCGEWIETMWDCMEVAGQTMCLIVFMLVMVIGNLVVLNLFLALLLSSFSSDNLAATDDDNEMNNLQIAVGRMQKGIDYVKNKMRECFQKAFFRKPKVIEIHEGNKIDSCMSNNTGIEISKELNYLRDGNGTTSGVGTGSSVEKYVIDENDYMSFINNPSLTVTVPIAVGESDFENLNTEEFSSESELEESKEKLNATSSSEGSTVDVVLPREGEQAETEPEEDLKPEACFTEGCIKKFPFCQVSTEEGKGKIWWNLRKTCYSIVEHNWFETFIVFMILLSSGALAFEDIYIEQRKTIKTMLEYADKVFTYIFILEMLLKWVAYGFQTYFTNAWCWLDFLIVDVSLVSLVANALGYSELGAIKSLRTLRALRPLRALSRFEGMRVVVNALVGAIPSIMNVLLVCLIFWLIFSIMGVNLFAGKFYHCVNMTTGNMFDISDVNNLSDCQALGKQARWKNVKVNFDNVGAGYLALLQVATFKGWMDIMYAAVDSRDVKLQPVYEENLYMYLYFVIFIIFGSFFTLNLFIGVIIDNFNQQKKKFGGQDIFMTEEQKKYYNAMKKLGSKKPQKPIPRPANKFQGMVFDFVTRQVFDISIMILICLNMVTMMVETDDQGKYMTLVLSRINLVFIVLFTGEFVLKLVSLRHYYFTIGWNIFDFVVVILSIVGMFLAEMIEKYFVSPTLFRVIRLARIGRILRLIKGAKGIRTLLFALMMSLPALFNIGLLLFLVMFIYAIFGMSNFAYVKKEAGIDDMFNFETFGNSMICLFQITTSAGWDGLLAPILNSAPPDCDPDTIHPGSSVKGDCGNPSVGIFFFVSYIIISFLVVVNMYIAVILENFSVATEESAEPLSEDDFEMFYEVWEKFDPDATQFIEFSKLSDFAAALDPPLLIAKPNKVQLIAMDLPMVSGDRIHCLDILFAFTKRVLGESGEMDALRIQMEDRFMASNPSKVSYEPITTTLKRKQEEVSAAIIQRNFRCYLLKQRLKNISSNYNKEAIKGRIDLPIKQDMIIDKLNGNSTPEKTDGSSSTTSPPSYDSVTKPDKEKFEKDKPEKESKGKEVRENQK
Type: cell-based
Experimental: Human Embryonic Kidney (HEK) cells were transfected with an hSCN3A construct using lipofectamine reagent (Invitrogen), using standard techniques. […] Clones were screened for expression using the whole-cell voltage-clamp technique.
HEK cells stably transfected with hSCN3A were maintained in DMEM medium supplemented with 10% heat-inactivated fetal bovine serum and 400 μg/ml G418 sulfate in an incubator at 37° C. with a humidified atmosphere of 10% CO2. […] For electrophysiological studies, cells were removed from the culture flask by brief trypsinization and replated at low density onto glass cover slips. Cells were typically used for electrophysiological experiments within 24 to 72 h after plating.
All recordings were made at room temperature (22-24° C.) using AXOPATCH 200B amplifiers and PCLAMP software (Axon Instruments, Burlingame, Calif.) or PatchXpress 7000 hardware and associated software (Axon Instruments, Burlingame, Calif.).
Current records were acquired at 20 to 50 KHz and filtered at 5 to 10 KHz.
HEK cells stably transfected with hSCN3A were viewed under Hoffman contrast optics and placed in front of an array of flow pipes emitting either control or compound-containing extracellular solutions. All compounds were dissolved in dimethyl sulfoxide to make 10 mM stock solutions, which were then diluted into extracellular solution to attain the final concentrations desired.
The voltage-dependence of inactivation was determined by applying a series of depolarizing prepulses (8 sec long in 10 mV increments) from a negative holding potential. The voltage was then immediately stepped to 0 mV to assess the magnitude of the sodium current. Currents elicited at 0 mV were plotted as a function of prepulse potential to allow estimation of the voltage midpoint of inactivation (V1/2). Cells were then voltage clamped at the empirically determined V1/2.
Compounds were tested for their ability to inhibit hSCN3A sodium channels by activating the channel with a 20 msec voltage step to 0 mV following an 8 second conditioning prepulse to the empirically determined V1/2 (Table B). Compound effect (% inhibition) was determined by difference in current amplitude before and after application of test compounds. […] Inhibition values <20% and >80% were excluded from the calculation.
In some cases electrophysiological assays were conducted with PatchXpress 7000 hardware and associated software (Molecular Devices Corp) (Table B). All assay buffers and solutions were identical to those used in conventional whole-cell voltage clamp experiments described above. hSCN3A cells were grown as above to 50%-80% confluency and harvested by trypsinization. Trypsinized cells were washed and resuspended in extracellular buffer at a concentration of 1×10^6 cells/ml. The onboard liquid handling facility of the PatchXpress was used for dispensing cells and application of test compounds. Determination of the voltage midpoint of inactivation was as described for conventional whole-cell recordings. Cells were then voltage-clamped to the empirically determined V1/2 and current was activated by a 20 msec voltage step to 0 mV.
Work on `O=C(NCc1ccc(C(F)(F)F)cc1)c1ccc(S(=O)(=O)Nc2ncc(Cl)s2)cc1` [Example 1, 4-{[(5-Chloro-1,3-thiazol-2-yl)amino]sulfonyl}-N-[4-(trifluoromethyl)benzyl]benzamide] yielded an IC50 of 70 nM.
`O=C(NCc1ccc(F)c(Cl)c1)c1ccc(S(=O)(=O)Nc2nccs2)cc1F` [Example 332, N-(3-chloro-4-fluorobenzyl)-2-fluoro-4-[(1,3-thiazol-2-ylamino)sulfonyl] benzamide] was tested, and the IC50 was 380 nM.
`O=C(c1ccc(S(=O)(=O)Nc2nccs2)cc1)N(Cc1ccccc1)[C@H]1CCCC[C@H]1CO` [Example 245, N-benzyl-N-[(1S,2R)-2-(hydroxymethyl)cyclohexyl]-4-[(1,3-thiazol-2-ylamino)sulfonyl]benzamide] gave an IC50 of 2220 nM.
With `O=C(NCc1ccc(F)c(OC(F)(F)F)c1)c1ccc(S(=O)(=O)Nc2ncc(Cl)s2)cc1` [Example 32, 4-{[(5-Chloro-1,3-thiazol-2-yl)amino]sulfonyl}-N-[4-fluoro-3-(trifluoromethoxy)benzyl]benzamide] the IC50 was 70 nM.
For `O=C(Nc1ccc2c(n1)CCC2)c1ccc(S(=O)(=O)Nc2nccs2)cc1` [Example 172, N-(6,7-dihydro-5H-cyclopenta[b]pyridin-2-yl)-4-[(1,3-thiazol-2-ylamino)sulfonyl]benzamide], the IC50 was 6520 nM.
`O=C(c1ccc(S(=O)(=O)Nc2nccs2)cc1)N1CCCC(Cc2cccc(F)c2)C1` (centres unmarked) [Example 47, 4-{[3-(3-Fluorobenzyl)piperidin-1-yl]carbonyl}-N-1,3-thiazol-2-ylbenzenesulfonamide] gave an IC50 of 920 nM.
For `O=C(c1ccc(S(=O)(=O)Nc2nccs2)cc1)N1CCO[C@@H]2Cc3ccccc3[C@@H]21` [Example 53, 4-[(4aS,9aR)-2,3,9,9a-tetrahydroindeno[2,1-b][1,4]oxazin-4(4aH)-ylcarbonyl]-N-1,3-thiazol-2-ylbenzenesulfonamide], the IC50 was 2860 nM.
`O=C(NCc1cccc(F)c1)c1ccc(S(=O)(=O)Nc2nccs2)cc1` [Example 90, N-(3-fluorobenzyl)-4-[(1,3-thiazol-2-ylamino)sulfonyl]benzamide] showed an IC50 of 1660 nM.
`O=C(NCCc1ccccc1)c1ccc(S(=O)(=O)Nc2nccs2)cc1` [Example 163, N-(2-phenylethyl)-4-[(1,3-thiazol-2-ylamino)sulfonyl]benzamide] was tested, and the IC50 was 5050 nM.
Compound `O=C(c1ccc(S(=O)(=O)Nc2nccs2)cc1)N1CC[C@@H](Oc2ccccc2Cl)C1` [Example 247, 4-{[(3R)-3-(2-chlorophenoxy)pyrrolidin-1-yl]carbonyl}-N-1,3-thiazol-2-yl-benzenesulfonamide] has an IC50 greater than 1000 nM.
Compound `O=C(NCc1ccc(C(F)(F)F)cc1)c1ccc(S(=O)(=O)Nc2nc[nH]n2)cc1` [Example 390, 4-[(1H-1,2,4-triazol-3-ylamino)sulfonyl]-N-[4-(trifluoromethyl)benzyl]benzamide] has an IC50 of 9950 nM.
`Cc1cc(CC(NC(=O)c2ccc(S(=O)(=O)Nc3nccs3)cc2)c2cccc(Cl)c2)on1` (centres unmarked) [Example 136, N-[1-(3-chlorophenyl)-2-(3-methylisoxazol-5-yl)ethyl]-4-[(1,3-thiazol-2-ylamino)sulfonyl]benzamide] gave an IC50 of 4260 nM.
Compound `O=C(NCc1ccc(OC(F)(F)F)c(F)c1)c1ccc(S(=O)(=O)Nc2nccs2)c(Cl)c1` [Example 286, 3-Chloro-N-[3-fluoro-4-(trifluoromethoxy)benzyl]-4-[(1,3-thiazol-2-yl-amino)sulfonyl]benzamide] has an IC50 of 140 nM.
With `O=C(Nc1nccc2ccccc12)c1ccc(S(=O)(=O)Nc2nccs2)cc1` [Example 117, N-isoquinolin-1-yl-4-[(1,3-thiazol-2-ylamino)sulfonyl]benzamide] the IC50 was 12700 nM.
`COc1ccc(CNC(=O)c2ccc(S(=O)(=O)Nc3nccs3)cc2)cc1C(F)(F)F` [Example 412, N-[4-methoxy-3-(trifluoromethyl)benzyl]-4-[(1,3-thiazol-2-ylamino)sulfonyl] benzamide] gave an IC50 of 270 nM.
With `O=C(NCc1ccc(Cl)c(F)c1)c1ccc(S(=O)(=O)Nc2ncc(Cl)s2)cc1` [Example 37, N-(4-Chloro-3-fluorobenzyl)-4-{[(5-chloro-1,3-thiazol-2-yl)amino]sulfonyl}benzamide] the IC50 was 70 nM.
Work on `O=C(c1ccc(S(=O)(=O)Nc2nccs2)cc1)N1CC[C@H](Oc2ccccc2Cl)C1` [Example 200, 4-{[(3S)-3-(2-chlorophenoxy)pyrrolidin-1-yl]carbonyl}-N-1,3-thiazol-2-yl-benzenesulfonamide] yielded an IC50 of 3600 nM.
Work on `O=C(NCc1ccc(F)c(C(F)(F)F)c1)c1ccc(S(=O)(=O)Nc2ncc(Cl)s2)cc1F` [Example 353, 4-{[(5-Chloro-1,3-thiazol-2-yl)amino]sulfonyl}-2-fluoro-N-[4-fluoro-3-(trifluoromethyl)benzyl]benzamide] yielded an IC50 of 220 nM.
`O=C(NCc1cccs1)c1ccc(S(=O)(=O)Nc2nccs2)cc1` [Example 386, 4-[(1,3-Thiazol-2-ylamino)sulfonyl]-N-(2-thienylmethyl)benzamide] was tested, and the IC50 was 3410 nM.
With `O=C(NCc1ccc(F)c(OC(F)(F)F)c1)c1ccc(S(=O)(=O)Nc2nccs2)c(Cl)c1` [Example 293, 3-Chloro-N-[4-fluoro-3-(trifluoromethoxy)benzyl]-4-[(1,3-thiazol-2-yl-amino)sulfonyl]benzamide] the IC50 was 2320 nM.
Work on `O=C(NCc1ccc(OC(F)(F)F)cc1)c1ccc(S(=O)(=O)Nc2nccs2)cc1` [Example 402, 4-[(1,3-Thiazol-2-ylamino)sulfonyl]-N-[4-(trifluoromethoxy)benzyl]benzamide] yielded an IC50 of 190 nM.
Work on `O=C(NC1Cc2ccccc2C1)c1ccc(S(=O)(=O)Nc2nccs2)cc1` [Example 173, N-(2,3-dihydro-1H-inden-2-yl)-4-[(1,3-thiazol-2-ylamino)sulfonyl]benzamide] yielded an IC50 of 2670 nM.
With `O=C(NCc1ccc(Cl)c(C(F)(F)F)c1)c1ccc(S(=O)(=O)Nc2nccs2)cc1` [Example 395, N-[4-chloro-3-(trifluoromethyl)benzyl]-4-[(1,3-thiazol-2-ylamino)sulfonyl]benzamide] the IC50 was 30 nM.
Compound `O=C(NCc1ccc(C(F)(F)F)c(F)c1)c1ccc(S(=O)(=O)Nc2ncc(Cl)s2)cc1` [Example 31, 4-{[(5-Chloro-1,3-thiazol-2-yl)amino]sulfonyl}-N-[3-fluoro-4-(trifluoromethyl)benzyl]benzamide] has an IC50 of 70 nM.
Work on `O=C(NCc1cccc(C(F)(F)F)c1)c1ccc(S(=O)(=O)Nc2nccs2)cc1` [Example 398, 4-[(1,3-Thiazol-2-ylamino)sulfonyl]-N-[3-(trifluoromethyl)benzyl] benzamide] yielded an IC50 of 260 nM.
In the case of `O=C(NCc1ccc(F)c(F)c1)c1ccc(S(=O)(=O)Nc2ncc(Cl)s2)cc1` [Example 33, 4-{[(5-Chloro-1,3-thiazol-2-yl)amino]sulfonyl}-N-(3,4-difluorobenzyl)benzamide], the IC50 is reported as 150 nM.
`CN(Cc1ccc(F)cc1)C(=O)c1ccc(S(=O)(=O)Nc2ncc(Cl)s2)cc1` [Example 43, 4-{[(5-Chloro-1,3-thiazol-2-yl)amino]sulfonyl}-N-(4-fluorobenzyl)-N-methylbenzamide] gave an IC50 of 4830 nM.
For `N#Cc1cccc(CNC(=O)c2ccc(S(=O)(=O)Nc3nccs3)cc2)c1` [Example 180, N-(3-cyanobenzyl)-4-[(1,3-thiazol-2-ylamino)sulfonyl]benzamide], the IC50 was greater than 1000 nM.
For `Cn1cc(NS(=O)(=O)c2ccc(C(=O)NCc3ccc(C(F)(F)F)cc3)cc2)cn1` [Example 10, 4-{[(1-Methyl-1H-pyrazol-4-yl)amino]sulfonyl}-N-[4-(trifluoromethyl)benzyl]benzamide], the IC50 was 1510 nM.
